For 69 molecules, TGI and GI50 results are on record in PubChem BioAssay (NCI).

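Cultured in 96-well plates, cells were exposed to test compound for 48 hours across five concentrations. GI50 marks 50% less growth. TGI is the concentration that stops growth completely.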

The first experiment has as its system NCI-H460 lung. In words: NCI-60 cell line screen, 48 h.
As to `COc1cc(COC(=O)N[C@H](C(=O)O)C(C)(C)C)c([N+](=O)[O-])cc1OC`, the TGI was greater than 100 µM.
Still for that read-out and setting: the value for `Cc1c(/C=N\NC(=S)N2CCN(C(=S)N/N=C\c3c(C)n(C)n(-c4ccccc4)c3=O)CC2)c(=O)n(-c2ccccc2)n1C` was greater than 100 µM; that for `O=C(NS(=O)(=O)Nc1ccc(Cl)cc1)OCc1ccc(Cl)cc1Cl` was 29.9 µM.

The test system of the next experiment is M14 melanoma. The experiment in a line: NCI-60 cell line screen, 48 h.
For `Cc1ccc2c(c1)nc(N)n[n+]2[O-]`, the TGI is greater than 100 µM.
On the same count and under the same terms, under `Cc1cn(C2CC(N)C(CN)O2)c(=O)[nH]c1=O` (configuration not stated) stands greater than 100 µM; under `Nc1nc2ncc(SCc3ccc(C(=O)NC(CCC(=O)O)C(=O)O)cc3)cc2c(=O)[nH]1` (configuration not stated), greater than 100 µM.
Same read-out and setting: under `COc1ccc2c(c1)c1c(n2CCN2CCOCC2)-c2ccccc2CC1` stands greater than 100 µM; under `O=C1CC(O)c2c1csc2Br` (configuration not stated), 35.5 µM.
As for `CCCCCCCCCC[C@@H](O)[C@H]1CC[C@H]([C@H]2CC[C@H]([C@H](O)CCCCCCCCCC[C@@H]3CC(CC(C)=O)C(=O)O3)O2)O1` (some centres not stated), the GI50 is 5.29 µM and the TGI was greater than 50 µM.
Molecule `CC(C)(C)C(=O)C(CC(=O)c1ccccc1)C(=O)C(C)(C)C` registered a TGI greater than 100 µM.
Same read-out and setting: under `COC(=O)c1cc(CC(C)C)c2c(c1)[nH]c1ccccc12` stands greater than 100 µM; under `CCOC(=O)c1cc(C2(O)CCN(Cc3ccccc3)C2=O)c(-c2cc(C)no2)[nH]1` (configuration not stated), greater than 100 µM; under `Cc1cn(C2C=CC(COP(=O)(OCC3=CC(=O)c4ccccc4C3=O)N(C)CCCCCl)O2)c(=O)[nH]c1=O` (configuration not stated), 2.84 µM.
On the same count and under the same terms, the value for `Clc1nc(Cl)nc(NC23CC4CC(CC(C4)C2)C3)n1` was 33.6 µM; that for `CCOC(=O)c1cc2c([N+](=O)[O-])c(NC(C)=O)ccc2s1` was greater than 100 µM.
`Cc1ccc2c(c1C)CC1(Cc3c(ccc4c3CCC4)C1=O)C2=O` (configuration not stated) had a TGI greater than 100 µM.
Take `OCC1CCCC(n2cnc3c(=S)nc[nH]c32)O1` (configuration not stated): the TGI was greater than 100 µM.
Same read-out and setting: the value for `COc1cc2oc(-c3ccc(O)cc3)c(OC3OC(C)C(O)C(O)C3O)c(=O)c2c(O)c1OC` (configuration not stated) was greater than 100 µM; that for `CCCCc1c(O)nc(Nc2nc3ccccc3[nH]2)[nH]c1=O` was greater than 100 µM.
Still for that read-out and setting: under `CC1(C)CC2(C)CC1CC2O` (configuration not stated) stands greater than 100 µM.
Same read-out and setting: under `Clc1cc(N/N=C(/c2ccccc2)c2ncccn2)ncn1` stands greater than 100 µM; under `O=C1CC2C=CC(O)C(C1)C2` (configuration not stated), greater than 100 µM; under `Cc1c(S(=O)(=O)c2ccccc2)c(N)n(Cc2ccccc2)c1C`, greater than 100 µM.
`COC(=O)C1(Cc2ccccc2)Cc2cc3c(cc2C1=O)CCC3` (configuration not stated) showed a TGI of 57.6 µM.
On the same count and under the same terms, the value for `N#CC1=C(N)OC2=C(CSc3ccccc32)C1c1ccc(Br)cc1` (configuration not stated) was 39.8 µM; that for `CCC(=O)C(c1ccccc1)c1ccccn1` (configuration not stated) was greater than 100 µM.
Still for that read-out and setting: the value for `CCCN=C1CC(C)Nc2ccccc2N1` (configuration not stated) was greater than 100 µM; that for `Cc1ccc(-c2cc(N)n(-c3nc4c([nH]3)c(=O)n(C)c(=O)n4C)n2)cc1` was 24.4 µM; that for `Cc1sc2nc3n(c(=O)c2c1C)N=CN(c1ccccc1)C3` was greater than 100 µM.
Same read-out and setting: the value for `CC(C)C(Sc1nc(-c2ccccc2)c(-c2ccccc2)[nH]1)C(=O)NNC(=S)Nc1ccccc1` (configuration not stated) was 30.6 µM; that for `COc1ccc(N2C(=O)C3c4[nH]c5ccc([N+](=O)[O-])cc5c4C4CCC(C(C)(C)C)CC4C3C2=O)cc1` (configuration not stated) was greater than 100 µM; that for `COC(=O)C1=C(C(=O)OC)C2OC1C1C2C2(C)C(C)=C(C)C1(C)S2=O` (configuration not stated) was 27.7 µM.
`CC(C)(C)OC(=O)NC(C)(C)C(=O)NCCC(=O)O`: the TGI was greater than 100 µM.
Same read-out and setting: under `CCOC(=O)CCC(NC(=O)c1ccc(OCc2nc3cc(C(F)(F)F)ccc3nc2-c2ccccc2)cc1)C(=O)OCC` (configuration not stated) stands greater than 100 µM; under `O=C(O)c1ccc(NC(c2ccccc2)c2ccc3cccnc3c2O)cc1` (configuration not stated), greater than 85.5 µM; under `CC12CC(c3ccccc3O1)C(C(=O)Nc1ccc(F)cc1)C(=O)N2` (configuration not stated), greater than 100 µM.
Take `O=c1c2c3ccccc3[nH]c2c2cccc3c2n1CCC3`: the TGI is greater than 100 µM.
The same measure, in the same setting: under `COc1ccc(C2C(Cl)C(=O)N2NC(=O)c2ccc(NC(C)=O)cc2)cc1` (configuration not stated) stands greater than 100 µM; under `c1ccc([P+](CCNCCNCC[P+](c2ccccc2)(c2ccccc2)c2ccccc2)(c2ccccc2)c2ccccc2)cc1`, greater than 100 µM.
Still for that read-out and setting: under `COc1ccc(-c2c(C#N)c(N)n(C3OC(CO)C(O)C(O)C3O)c(=S)c2C#N)cc1` (configuration not stated) stands greater than 100 µM.
The same measure, in the same setting: the value for `CCOC(=O)c1sc2nc(SC)nc3c2c1N=CN3c1ccc(Br)cc1` was greater than 100 µM; that for `c1ccc(C[P+]2(c3ccccc3)c3ccccc3-c3ccccc32)cc1` was greater than 100 µM; that for `C=CCN(CC=C)Cn1c(=S)sc2ccccc21` was greater than 100 µM.
With `O=c1[nH]c2nc3ccccc3c(=O)n2/c1=C/c1ccc(O)cc1`, the TGI is greater than 100 µM.
Take `CC[C@@H]1CC[C@@H]2[C@H](CC[C@]3(C)[C@@H](O)CC[C@@H]23)[C@H]1C(=O)O`: the TGI is greater than 100 µM.
In the case of `CCOC(=O)c1c(NC(=O)c2ccccc2)sc2c1CCCC2`, the TGI is greater than 100 µM.
The same measure, in the same setting: the value for `Nc1nc(Cl)cc(NCC2(CO)CC(CCc3ccccc3)C2)n1` (configuration not stated) was greater than 100 µM; that for `O=c1c2ccccc2[nH]c(=S)n1-c1ccc(N=Nc2cccc3c(O)cccc23)cc1` was greater than 100 µM.
Same read-out and setting: under `CCOc1ccc(N/C(=C(/C(Cl)=C(/Cl)NCCN)[N+](=O)[O-])n2nnc3ccccc32)cc1` stands greater than 100 µM.
Turning to `N#C/C(=C\NC(=S)Nc1ccc(S(=O)(=O)Nc2ccccn2)cc1)C(N)=O`, the TGI was greater than 100 µM.
The same measure, in the same setting: the value for `CC(=O)NC1C(OCc2ccccc2)OC(CO)C(O)C1OCC(=O)N[C@@H](C)C(=O)N[C@H](CCC(=O)NCCNCCNc1c2ccccc2nc2cccc([N+](=O)[O-])c12)C(N)=O` (some centres not stated) was greater than 100 µM; that for `c1cc2nnc1SCCSCCSc1ccc(nn1)SCCSCCS2` was greater than 100 µM.
Same read-out and setting: the value for `O=C1CC(C(O)CO)CC(=O)N1` (configuration not stated) was greater than 100 µM; that for `COc1ccc(-c2c(C#N)c(S)n(C3OC(COC(C)=O)C(OC(C)=O)C(OC(C)=O)C3OC(C)=O)c(=O)c2C#N)cc1` (configuration not stated) was greater than 100 µM; that for `C[C@]12OC[C@H](c3ccccc3)N1C(=O)C1[C@H]2CC12SCCS2` (some centres not stated) was greater than 100 µM.
Still for that read-out and setting: the value for `O=C(Cc1nc2ccc(C(=O)c3ccccc3)cc2[nH]c1=O)C(=O)Nc1ccc(Br)cc1` was greater than 100 µM; that for `c1sc(NC2=NCCO2)c2c1CCCC2` was greater than 100 µM; that for `Cc1c(Cl)ccc2c(=O)c3cccc(CC(=O)O)c3oc12` was greater than 100 µM.
In the case of `CC(=O)C(CN1CCCCC1)C(c1ccccc1)c1c(O)c2ccccc2oc1=O` (configuration not stated), the TGI was greater than 100 µM.
On the same count and under the same terms, the value for `C/C(=N\NC(=S)NC(C)C)c1nc2ncccc2[nH]1` was greater than 100 µM.
Molecule `O=c1oc2ccccc2c(O)c1C(c1cc(OCc2ccccc2)cc(OCc2ccccc2)c1)c1c(O)c2ccccc2oc1=O` yielded a TGI of 23 µM.
`Cc1cccc(N2C(=O)C3ON(C(C(N)=O)c4ccccc4)C(c4c5ccccc5c(Cl)c5ccccc45)C3C2=O)c1C` (configuration not stated) returned a TGI of 16.1 µM.
The same measure, in the same setting: the value for `Nc1ccccc1Nc1ccccc1C(=O)[O-].Nc1ccccc1Nc1ccccc1C(=O)[O-].[Cu+2]` was greater than 100 µM.
On the same count and under the same terms, the value for `Cc1ccccc1C1OC1C(=O)c1ccccc1N` (configuration not stated) was greater than 100 µM; that for `Cc1cc(-c2nc3ccccc3s2)ccc1NS(=O)(=O)O` was greater than 100 µM; that for `CCOC(=O)C(OCC1CC=CCC1)Sc1ccccc1` (configuration not stated) was greater than 100 µM.
The same measure, in the same setting: under `COc1cc(COC(=O)N[C@H](C(=O)O)C(C)(C)C)c([N+](=O)[O-])cc1OC` stands greater than 100 µM.
As to `Cc1c(/C=N\NC(=S)N2CCN(C(=S)N/N=C\c3c(C)n(C)n(-c4ccccc4)c3=O)CC2)c(=O)n(-c2ccccc2)n1C`, the TGI was greater than 100 µM.
On the same count and under the same terms, the value for `Cc1cc2c(c(C(=O)NCCC(=O)O)c1)Oc1c(cc(C)cc1C(=O)NCCC(=O)O)S2` was greater than 100 µM.
On to `c1cc(-c2cnc(-c3ccc4c(c3)CCCO4)o2)ccn1`, for which the TGI worked out at 33 µM.
The same measure, in the same setting: under `CCN(CC)CCn1c2cc3c(cc2c(=O)c2cccnc21)OCCO3` stands greater than 10 µM; under `O=C(NS(=O)(=O)Nc1ccc(Cl)cc1)OCc1ccc(Cl)cc1Cl`, greater than 100 µM.

The test system of a further experiment is KM20L2 colon. The experiment in a line: NCI-60 cell line screen, 48 h.
As to `COC(=O)c1cc(CC(C)C)c2c(c1)[nH]c1ccccc12`, the TGI is greater than 100 µM.
Same read-out and setting: the value for `CC(C)C(Sc1nc(-c2ccccc2)c(-c2ccccc2)[nH]1)C(=O)NNC(=S)Nc1ccccc1` (configuration not stated) was 37.6 µM; that for `COc1ccc(C2C(Cl)C(=O)N2NC(=O)c2ccc(NC(C)=O)cc2)cc1` (configuration not stated) was greater than 100 µM.
The same measure, in the same setting: under `Nc1ccccc1Nc1ccccc1C(=O)[O-].Nc1ccccc1Nc1ccccc1C(=O)[O-].[Cu+2]` stands greater than 100 µM.
Still for that read-out and setting: under `CCOC(=O)C(OCC1CC=CCC1)Sc1ccccc1` (configuration not stated) stands greater than 100 µM.

The subject of another experiment is DMS 273 small cell lung. The experiment in a line: NCI-60 cell line screen, 48 h.
In turn, `COC(=O)c1cc(CC(C)C)c2c(c1)[nH]c1ccccc12` had a TGI greater than 100 µM.
On the same count and under the same terms, the value for `CC(C)C(Sc1nc(-c2ccccc2)c(-c2ccccc2)[nH]1)C(=O)NNC(=S)Nc1ccccc1` (configuration not stated) was 34.8 µM.
Still for that read-out and setting: under `COc1ccc(C2C(Cl)C(=O)N2NC(=O)c2ccc(NC(C)=O)cc2)cc1` (configuration not stated) stands greater than 100 µM; under `CCOC(=O)C(OCC1CC=CCC1)Sc1ccccc1` (configuration not stated), greater than 100 µM.
